Measured values from publication PMC7577125 (Antimicrobial Agents and Chemotherapy, 2020).

What was measured:
[1] = test system: HBV (genotype D, subtype ayw); test: HBV replication assay in HepAD38 cells; type: cell-based, Hepatitis B virus; details: Hepatitis B virus, HePAD38, HepAD38; total intracellular viral DNA; read-out: Mean EC50, viral DNA
[2] = test system: HBV; test: HBV infection of HepG2-NTCP cells; type: cell-based; details: Hepatitis B virus
[3] = test system: HBV; test: HBV infection of primary human hepatocytes (PHHs); type: cell-based; details: Hepatitis B virus, Hepatocyte, PHH
[4] = test system: HBV; test: HBV RNA/DNA analyses in induced HepAD38 cells (Northern/Southern blot); type: cell-based, Hepatitis B virus; details: HepAD38, 10-fold over VR EC50
[5] = test system: HBV; test: Extracellular HBV DNA and pgRNA in HepAD38 cells (qPCR, RT-qPCR); type: cell-based, Hepatitis B virus; details: HepAD38; concn ETV 0.01, ABI-H0731 2.0, GLS4 0.5, NVR 3-778 2.5, AT-130 0.8, VRD-32 0.8 μM
Source text: For HBV RNA Northern blot analysis, total cellular RNA or encapsidated pgRNA samples were resolved in a 1.5% agarose gel containing 2.2 M formaldehyde and transferred onto a Hybond-XL membrane (GE Healthcare). For DNA Southern blot analysis, HBV core DNA or cccDNA samples were resolved by electrophoresis in a 1.2% agarose gel and blotted onto a Hybond-XL membrane. Membranes were probed with either an [α-^32P]UTP (3,000 Ci/mmol; PerkinElmer)-labeled plus-strand-specific (for Northern blot hybridization) or minus-strand-specific (for Southern blot hybridization) HBV riboprobe and exposed to a phosphorimager screen. Extracellular HBV DNA and RNA were copurified from the culture medium of induced HepAD38 cells by using a MinElute virus vacuum kit (Qiagen). Viral DNA was quantified using the above-mentioned qPCR method directly, and HBV RNA was detected by RT-qPCR with the same core region primer/probe set after the removal of DNA contamination by DNase I (Thermo Fisher) treatment.

[6] = test system: HBV Cp Wild type; test: microbe, parasite or virus in culture; type: cell-based, Hepatitis B virus; details: for EC50: Hepatitis B virus, Huh-7, read-out: Mean EC50; for Fold shift: Wild type
[7] = test system: HBV Cp P25A; test: microbe, parasite or virus in culture; type: cell-based, Hepatitis B virus; details: for EC50: Hepatitis B virus, Huh-7, read-out: Mean EC50; for Fold shift: P25A vs wild type
[8] = test system: HBV Cp D29G; test: microbe, parasite or virus in culture; type: cell-based, Hepatitis B virus; details: for EC50: Hepatitis B virus, Huh-7, read-out: Mean EC50; for Fold shift: D29G vs wild type
[9] = test system: HBV Cp T33N; test: microbe, parasite or virus in culture; type: cell-based, Hepatitis B virus; details: for EC50: Hepatitis B virus, Huh-7, read-out: Mean EC50; for Fold shift: T33N vs wild type
[10] = test system: HBV Cp Y38C; test: microbe, parasite or virus in culture; type: cell-based, Hepatitis B virus; details: for EC50: Hepatitis B virus, Huh-7, read-out: Mean EC50; for Fold shift: Y38C vs wild type
[11] = test system: HBV Cp Y38F; test: microbe, parasite or virus in culture; type: cell-based, Hepatitis B virus; details: for EC50: Hepatitis B virus, Huh-7, read-out: Mean EC50; for Fold shift: Y38F vs wild type
[12] = test system: HBV Cp I105L; test: microbe, parasite or virus in culture; type: cell-based, Hepatitis B virus; details: for EC50: Hepatitis B virus, Huh-7, read-out: Mean EC50; for Fold shift: I105L vs wild type
[13] = test system: HBV Cp I105T; test: microbe, parasite or virus in culture; type: cell-based, Hepatitis B virus; details: for EC50: Hepatitis B virus, Huh-7, read-out: Mean EC50; for Fold shift: I105T vs wild type
[14] = test system: HBV Cp T109I; test: microbe, parasite or virus in culture; type: cell-based, Hepatitis B virus; details: for EC50: Hepatitis B virus, Huh-7, read-out: Mean EC50; for Fold shift: T109I vs wild type
[15] = test system: HBV Cp T109M; test: microbe, parasite or virus in culture; type: cell-based, Hepatitis B virus; details: for EC50: Hepatitis B virus, Huh-7, read-out: Mean EC50; for Fold shift: T109M vs wild type
[16] = test system: HBV Cp Y118F; test: microbe, parasite or virus in culture; type: cell-based, Hepatitis B virus; details: for EC50: Hepatitis B virus, Huh-7, read-out: Mean EC50; for Fold shift: Y118F vs wild type
[17] = total intracellular viral DNA, read-out: Mean EC50, viral DNA

SMILES	EC50 [1]	EC50 ([2]; read-out: Mean EC50, HBeAg)	EC50 ([2]; read-out: Mean EC50, HBsAg)	EC50 ([2]; read-out: Mean EC50, pgRNA)	EC50 [2, 17]	EC50 [3, 17]	Levels of encapsidated pgRNA by Northern blotting [4]	Extracellular DNA content (% of DMSO control) [5]	Extracellular pgRNA content (% of DMSO control) [5]	EC50 [6]	EC50 [7]	EC50 [8]	EC50 [9]	EC50 [10]	EC50 [11]	EC50 [12]	EC50 [13]	EC50 [14]	EC50 [15]	EC50 [16]	other results
CCOC(=O)C1=C(CN2CCOCC2)NC(c2nccs2)=NC1c1ccc(F)cc1Br (stereo not drawn) [GLS4]	29 ± 9 nM	549 ± 48 nM	673 ± 41 nM	279 ± 43 nM	58 ± 6 nM	1940 nM	virtually undetectable	0.1 % of DMSO control	0.1 % of DMSO control	17.9 ± 0.4 nM	451 ± 3.3 nM	16.1 ± 0.4 nM	6340 nM	17 ± 9.5 nM	65 ± 17 nM	12 ± 6.5 nM	17 ± 2.7 nM	237 ± 16.6 nM	15 ± 5.6 nM	84.7 ± 2.3 nM	EC50 ([2]; read-out: EC50, HBeAg production): 550 nM; EC50 ([2]; read-out: EC50, HBsAg production): 670 nM; EC50 ([2]; read-out: EC50, pgRNA production): 280 nM; EC50 ([3]; read-out: EC50, HBeAg): 1480 nM; EC50 ([3]; read-out: EC50, HBsAg): 1860 nM; EC50 ([3]; read-out: EC50, pgRNA): 1930 nM; rcDNA detection by Southern blot [4]: could not be detected
O=C(Nc1cc(F)c(F)c(F)c1)c1ccc(F)c(S(=O)(=O)N2CCC(O)CC2)c1 [NVR 3-778]	238 ± 33 nM	8360 nM	9260 nM	7600 nM	590 ± 71 nM	1680 nM	virtually undetectable	1.0 % of DMSO control	2.0 % of DMSO control	178 ± 42 nM	719 ± 58 nM	210 ± 52 nM	> 10000 nM	150 ± 48 nM	208 ± 49 nM	127 ± 73 nM	726 ± 98 nM	77.4 ± 0.4 nM	161 ± 97 nM	887 ± 478 nM	EC50 ([3]; read-out: Mean EC50, HBeAg): 4010 nM; EC50 ([3]; read-out: Mean EC50, HBsAg): 5040 nM; EC50 ([3]; read-out: Mean EC50, pgRNA): 4200 nM; Fold shift [6]: 1 fold; Fold shift [7]: 4 fold; Fold shift [8]: 1.2 fold; Fold shift [9]: >56 fold; Fold shift [10]: 0.8 fold; Fold shift [11]: 1.2 fold; Fold shift [12]: 0.7 fold; Fold shift [13]: 4.1 fold; Fold shift [14]: 0.4 fold; Fold shift [15]: 0.9 fold; Fold shift [16]: 5 fold
O=C1CO[C@H](c2cn(-c3ccc(F)cc3)nc2-c2ccc(F)cc2)N1CCc1ccc(O)cc1 [VRD-32]							virtually undetectable	0.3 % of DMSO control	0.9 % of DMSO control	16.1 ± 7.8 nM	15.9 ± 0.04 nM	13.8 ± 1 nM	1290 nM	20 ± 1.4 nM	20 ± 10 nM	40 ± 19 nM	103 ± 87 nM	15.8 ± 1.9 nM	25 ± 23 nM	805 ± 423 nM	rcDNA detection by Southern blot [4]: could not be detected; Fold shift [6]: 1 fold; Fold shift [7]: 1 fold; Fold shift [8]: 0.9 fold; Fold shift [9]: 80 fold; Fold shift [10]: 1.2 fold; Fold shift [11]: 1.3 fold; Fold shift [12]: 2.5 fold; Fold shift [13]: 6.4 fold; Fold shift [14]: 1 fold; Fold shift [15]: 1.6 fold; Fold shift [16]: 50 fold
